Patent US7910621B2, “Small molecule antagonists of XIAP family proteins” (The Regents of the University of Michigan, priority 2004, dated 2011)
Ends that are not written are not given here. Peptide text beside a SMILES is read from it. * marks the point of attachment. 6FAM = O=C1OC2(c3ccc(O)cc3Oc3cc(O)ccc32)c2cc(C(=O)*)ccc21; Cbz = O=C(OCc1ccccc1)*; CH2F = FC*

Key:
[1] = molecular target: T1, BIR3 domain (residues 241-356) of human XIAP (Homo sapiens, UniProt P98170); assay: XIAP binding assay, FP-based (Smac-Flu tracer); conditions: Table 5
T1 construct: the BIR3 domain (residues 241-356) of human XIAP fused to His-tag; His-tag
T1 sequence (P98170 241-356): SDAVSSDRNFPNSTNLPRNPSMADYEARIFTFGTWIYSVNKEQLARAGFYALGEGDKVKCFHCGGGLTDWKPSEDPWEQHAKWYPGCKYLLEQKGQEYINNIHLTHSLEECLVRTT
Protocol: An established sensitive and quantitative in vitro fluorescence polarization-based (FP) binding assay for testing of the binding affinity of each new small molecule inhibitor of XIAP is used. […] The competing inhibitor is then added in microtiter wells. If the inhibitor does compete with Smac-Flu to bind to XIAP, it displaces the Smac-Flu peptide from the complex and cause a reduction in the polarization value. […] The change in the polarization value is used to determine the relative affinity of the inhibitor for XIAP. The XIAP used in this assay is the BIR3 domain (residues 241-356) of human XIAP fused to His-tag.
The FP assays were performed as follows: each 96-well contains 50 nM Smac-Flu peptide, 985 nM XIAP protein and 5 ul tested compounds in a final volume of 20 ul. Tested compounds were serially diluted in triplicate in concentration from 0 to 100 uM. For each assay negative controls containing XIAP and Smac-Flu (equivalent to 0% inhibition) and positive controls containing only free Smac-Flu peptide (equivalent to 100% inhibition) were included on each assay plate. The polarization values were measured after 3 hour incubation when the binding reached equilibrium. IC50 values were determined from the plot using nonlinear least-squares analysis. Curve fitting was performed using […] PRISM software. The Kis of competing compounds were derived from the measured IC50 and the Kd of Smac-Flu in the competition assays, using the Cheng-Prusoff equation. The fluorescence intensity of each tested inhibitor is closely monitored to exclude any false positives. Furthermore, compounds with high fluorescence intensity are tested using the NMR methods described below.

[2] = molecular target: T2, human XIAP BIR3 protein (residues 241-356) (Homo sapiens, UniProt P98170); assay: FP direct binding of fluorescent labeled Smac peptides to XIAP BIR3 (Kd titration)
T2 construct: The human XIAP BIR3 protein (residues 241-356) with a His tag; His tag
T2 sequence (P98170 241-356): as above

Jurkat-Vec cells = assay: Cell growth assay, Jurkat-Vec; format: cell-based; conditions: 2.5 μM, 72 hours
Protocol: (§1) FIG. 9 presents inhibition of cell growth by embelin in Jurkat-Vec and Jurkat-XIAP cells. The cell growth results are expressed as the percent of control and calculated from the percent of absorbance of treated wells versus that of vehicle control.
(§2) Human prostate cancer cell lines (PC-3, LNCap, CL-1, DU-145), and normal human fibroblast cell line WI-38 were obtained from the American Type Culture Collection (ATCC), were grown and maintained in Dulbecco's modified Eagle's medium (DMEM) containing 10% FBS (Invitrogen Corporation). Normal human prostate epithelial cells (PrEC) were obtained from Clonetics (Cambrex Inc., MD) and maintained in the special medium provided by the company. Jurkat T-cells stably transfected with either empty vector (Jurkat-Vec), or XIAP (Jurkat-XIAP) and were cultured in RPMI 1640 containing 10% fetal calf serum and 1 ug/ml puromycin. Cell cultures were maintained in a humidified incubator at 37° C. and 5% CO2.
Cell growth was determined by the MTT-based assay using Cell Proliferation Reagent WST-1 (Roche) according to the manufacturer's instruction. […] Absorbance was measured with a plate reader at […] with correction at […]. The results are expressed as the percent of absorbance of treated wells versus that of vehicle control.

Jurkat-XIAP cells = assay: Cell growth assay, Jurkat-XIAP; format: cell-based
Protocol: as §1, §2
Cell growth was determined by the MTT-based assay using Cell Proliferation Reagent WST-1 (Roche) according to the manufacturer's instruction. The WST-1 assay is a colorimetric assay that measures the reduction of WST-1 by mitochondrial succinate dehydrogenase, which belongs to the respiratory chain of the mitochondria and is active only in viable cells. The WST-1 enters the cells and passes into the mitochondria, where it is reduced to a soluble, colored formazan product. The amount of formazan dye formed directly correlates to the number of metabolically active cells in the culture. Cells (5000 cells/well) were grown in medium with 10% FBS, and various concentrations of drugs were added to the cells in triplicate. […] Absorbance was measured with a plate reader at […] with correction at […]. The results are expressed as the percent of absorbance of treated wells versus that of vehicle control.

[3] = molecular target: XIAP BIR3 protein of human XIAP (residues 241-356) (Homo sapiens, UniProt P98170); assay: biochemical
Sequence of XIAP BIR3 protein of human XIAP (residues 241-356) (P98170 241-356): as above

caspase-9 in PC-3 cells = assay: Activation of caspase-9 assay, PC-3; format: cell-based, human; conditions: for blocking of active caspase-9 staining in Annexin V-FITC positive cells by pre-incubation: embelin-treated PC-3 cells pre-incubated with excessive inhibitor (20 μM LEHD-FMK, 5 min) before staining
Protocol: FIGS. 7A and 7B show the activation of caspase-9 by embelin in PC-3 prostate cancer cells and its selectivity in normal prostate epithelial cells. 1×10^6 PC-3 or PrEC cells per well in 6-well culture plates were treated with embelin for 48 hours. […] The cells were collected and stained of active caspase-9 by CaspGLOW Red Active Caspase-9 Staining Kit, and analyzed by flow cytometry in PI channel.
1×10^6 PC-3 cells per well in 6-well culture plates, were treated with various concentrations of embelin, or the same amount of solvent DMSO as vehicle control, for up to 48 hr. […] The cells were collected for staining of active caspase-9 by CaspGLOW Red Active Caspase-9 Staining Kit (BioVision, Inc., Mountain View, Calif.) according to the manufacturer's instructions, with modification. Briefly, to each tube containing 1×10^6 treated or control cells in 0.3 ml complete culture medium was added 1 μl of Red-LEHD-FMK and incubated for 0.5 hr at 37° C. incubator with 5% CO2. For double staining with Annexin V-FITC, the cells were spun down and resuspended in 100 μl Binding Buffer containing 1× Annexin V-FITC from the Annexin-V-FLUOS Kit (Roche) and incubated at room temperature for 10 min. The cells were then washed two times with Wash Buffer from the Active Caspase-9 Staining Kit. The cells were resuspended in 0.3 ml Binding Buffer and analyzed by flow cytometry, using PI channel for active caspase-9 and FITC channel for apoptosis.
The active caspase-9 and Annexin V double stained cells were also observed under Zeiss Laser Scanning Confocal Microscope LSM 510 Meta, using the fluorescent filter sets for rhodamine (Red) and FITC (green) channels. Early apoptotic cells show green fluorescence on the cell membrane while caspase-9 positive cells show bright red staining in the cytoplasm. Photos were taken at original magnification of 630×.

Compound	IC50 [1] [µM]	also measured
CC(C)c1ccc(CCc2cccc(CCC3=C(O)C(=O)C=C(O)C3=O)c2)cc1 [CJ-294]	3.76 ± 0.25	–
Cc1ccc(CNC(=O)c2cccc(CCC3=C(O)C(=O)C=C(O)C3=O)c2)cc1 [CJ-315]	5.27 ± 1.43	–
Cc1ccccc1NC(=O)c1cccc(CCC2=C(O)C(=O)C=C(O)C2=O)c1 [CJ-323]	11.6 ± 0.96	–
O=C1C=C(O)C(=O)C(CCc2ccccc2)=C1O [CJ-331]	89.1 ± 11.3	–
O=C1C=C(O)C(=O)C(CCCCc2ccccc2)=C1 [EW-3]	353 ± 79.4	–
CCCCc1cccc(CCC2=C(O)C(=O)C=C(O)C2=O)c1 [EW-4]	27.6 ± 2.76	–
O=C1C(O)=C(CCc2cccc(CCc3ccccc3)c2)C(=O)C(O)=C1CCc1ccccc1 [EW-6]	14.3 ± 2.41	–
O=C1C=C(O)C(=O)C(CCc2cccc(CCc3ccc(Cl)cc3)c2)=C1O [EW-8]	8.05 ± 1.48	–
C[C@H](N)C(=O)N[C@@H](CCCNC(=N)N)C(=O)N1CCC[C@H]1C(=O)N[C@@H](Cc1ccccc1)C(=O)N[C@@H](C)C(=O)N[C@@H](CCC(N)=O)C(=O)N[C@@H](CCCCNC(=O)c1ccc2c(c1)C1(OC2=O)c2ccc(O)cc2Oc2cc(O)ccc21)C(=O)O [SM7F, ARPFAQK-FAM] (H-ARPFAQK(6FAM)-OH; N-terminus and C-terminus assumed)	–	binding affinity compared with S9F [2]: higher binding affinity than S9F; ratio of the Kd values between labeled SM7F and S9F [2]: 7.3 times
COc1cc([C@@H]2c3cc4c(cc3[C@@H](O[C@@H]3O[C@@H]5CO[C@@H](C)O[C@H]5[C@H](O)[C@H]3O)[C@H]3COC(=O)[C@H]23)OCO4)cc(OC)c1O [etoposide]	–	cells killed in cell growth assay (Jurkat-Vec cells): 94.3%±0.6%; cells killed in cell growth assay (Jurkat-XIAP cells; 2.5 μM, 72 hours): 59%±2%; cells killed in cell growth assay (Jurkat-XIAP cells; 10 μM): 85%±0.1%
ARPFAQK [SM7]	–	IC50 [3]: 0.57 ± 0.11 µM
Cbz-Val-Ala-Asp-CH2F [ZVAD peptide, reference compound]	–	blocking of Annexin V-FITC and active caspase-9 double staining (caspase-9 in PC-3 cells; PC-3 cells, 40 μM embelin, 48 hrs): blocked; inhibition of embelin-induced activation of caspase-9 (caspase-9 in PC-3 cells; pan-caspase inhibitor added 5 min before embelin): effectively inhibited
LEHD-FMK [reference compound]	–	blocking of active caspase-9 staining in Annexin V-FITC positive cells by pre-incubation (caspase-9 in PC-3 cells): blocked
ZDEVD-FMK [reference compound]	–	blocking of active caspase-9 staining in Annexin V-FITC positive cells by pre-incubation (caspase-9 in PC-3 cells): did not

Second part, led by results:

IC50 [1] [µM]	Compound	also measured
2.14 ± 0.73	Cc1ccc(CCc2cccc(CCC3=C(O)C(=O)C=C(O)C3=O)c2)cc1 [CJ-274]	–
3.42 ± 0.31	CC(C)c1ccc(CCc2cccc(CCC3=C(O)C(=O)C=C(O)C3=O)c2)cc1 [CJ-301]	–
1.62 ± 0.28	Cc1ccc(NC(=O)c2cccc(CCC3=C(O)C(=O)C=C(O)C3=O)c2)cc1 [CJ-305]	–
4.89 ± 0.75	Cc1cccc(NC(=O)c2cccc(CCC3=C(O)C(=O)C=C(O)C3=O)c2)c1 [CJ-322]	–
12.3 ± 1.09	O=C1C=C(O)C(=O)C(CCc2cccc(C(=O)Nc3ccc(Cl)c(Cl)c3)c2)=C1O [CJ-327]	–
61.4 ± 9.29	CC(C)CCCCCC1=CC(=O)C=C(O)C1=O [EW-2]	–
9.18 ± 1.9	O=C1C=C(O)C(=O)C(CCc2cccc(CCc3cccc(Cl)c3)c2)=C1O [EW-7]	–
475 ± 122	CCC1=C(O)C(=O)C=C(O)C1=O [EW-9]	–
